Results as given in PubChem BioAssay (NCI).
“And” between values parts separate entries of the source, which are not always exact repeats. Equal entries are not always repeated.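 48-hour exposure; five concentrations; linearly interpolated endpoints. Abbreviation: GI50, concentration required for 50% inhibition of growth. At the TGI there is no net growth.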

Key:
Assay in all cases: NCI anticancer screen, dose series, 48 h
HS 578T breast = tested on: HS 578T breast
UO-31 renal = tested on: UO-31 renal
KM12 colon = tested on: KM12 colon
HCT-15 colon = tested on: HCT-15 colon
PC-3 prostate = tested on: PC-3 prostate
IGROV1 ovarian = tested on: IGROV1 ovarian
SK-MEL-2 melanoma = tested on: SK-MEL-2 melanoma
SNB-19 CNS = tested on: SNB-19 CNS
SW-620 colon = tested on: SW-620 colon
MDA-MB-435 = tested on: MDA-MB-435

| SMILES | TGI (HS 578T breast) | TGI (UO-31 renal) | GI50 (KM12 colon) | TGI (KM12 colon) | TGI (HCT-15 colon) | GI50 (PC-3 prostate) | TGI (PC-3 prostate) | TGI (IGROV1 ovarian) | TGI (SK-MEL-2 melanoma) | GI50 (SNB-19 CNS) | TGI (SNB-19 CNS) | TGI (SW-620 colon) | GI50 (MDA-MB-435) | TGI (MDA-MB-435) | GI50 (HS 578T breast) | GI50 (UO-31 renal) | GI50 (HCT-15 colon) | GI50 (IGROV1 ovarian) | GI50 (SK-MEL-2 melanoma) | GI50 (SW-620 colon) |
| --- | --- | --- | --- | --- | --- | --- | --- | --- | --- | --- | --- | --- | --- | --- | --- | --- | --- | --- | --- | --- |
| c1ccc(P(CCP(CCP(c2ccccc2)c2ccccc2)c2ccccc2)CCP(c2ccccc2)c2ccccc2)cc1 (centres undefined) | > 10 µM | > 10 µM | > 10 µM and 1.39 µM | > 10 µM | > 10 µM | > 10 µM | > 10 µM | > 10 µM | > 10 µM | > 10 µM | > 10 µM | > 10 µM | > 10 µM and 3.67 µM | > 10 µM |  |  |  |  |  |  |
| CCCCN(CCCC)c1ccc(C(=NC(C)CCCN(CC)CC)c2ccc(N(C)C)cc2)cc1 (centres undefined) | 2.05 µM | 1.42 µM | 0.965 µM | 2.33 µM | 1.56 µM | 0.885 µM | 1.93 µM | 1.95 µM | 1.81 µM | 1.14 µM | 2.82 µM | 1.68 µM | 0.783 µM | 1.57 µM | 0.884 µM | 0.713 µM | 0.767 µM | 0.897 µM | 0.814 µM | 0.793 µM |
| COCCNc1cc(NC(=O)N2CCCc3cc(CN4CCN(C)CC4=O)c(C=O)nc32)ncc1C#N | > 50 µM | > 50 µM | > 50 µM | > 50 µM | > 50 µM | > 50 µM | > 50 µM | > 50 µM | > 50 µM | > 50 µM | > 50 µM | > 50 µM | > 50 µM | > 50 µM | 23.7 µM | > 50 µM | 33.1 µM | > 50 µM | 36.6 µM | > 50 µM |
| Cc1cn2c(/C=N/Nc3ccccn3)c(-c3ccc(Cl)c([N+](=O)[O-])c3)nc2s1 | 39.4 µM | > 50 µM | 23.1 µM | > 50 µM | > 50 µM | 20.8 µM | > 50 µM | 21.8 µM | > 50 µM | 12.4 µM | 32.7 µM | > 50 µM | 30.3 µM | > 50 µM | 12 µM | 13.1 µM | 16 µM | 5.62 µM | 21.2 µM | 44.1 µM |
| Nc1ccc(-c2ccc(N)cc2I)c(I)c1 | 88.3 µM | 26 µM | 14.5 µM | 36.5 µM | 34.1 µM | 16.3 µM | 47.6 µM | 56.1 µM | 37.4 µM | 19 µM | 77.3 µM | 81.7 µM | 3.72 µM | 16.2 µM | 17.1 µM | 10.6 µM | 13.7 µM | 13.9 µM | 15.9 µM | 19.4 µM |
